Measured values: patent US11440905B2, “Biheterocyclic compound” (SUMITOMO PHARMA CO., LTD., priority 2016, dated 2022)
Structures can show the parent of a compound that is named as a salt.

Key:
[1] = molecular target: T1, mouse Sema3A binding to CHO cells stably-expressing mouse neuropilin (Mus musculus, UniProt O08665); experiment: Inhibitory activity for the neuropilin-binding activity caused by Sema3A (Test 2); conditions: 1 h, AP-Sema3A, read-out: residual ratio (%) of avidity (Sema3A-neuropilin binding); for remaining activity at 100 µM: 100 μM test compound, smaller value = more potent binding inhibition
T1 construct: host or cells: CHO cells stably expressing the neuropilin partner
T1 sequence (O08665 21-772): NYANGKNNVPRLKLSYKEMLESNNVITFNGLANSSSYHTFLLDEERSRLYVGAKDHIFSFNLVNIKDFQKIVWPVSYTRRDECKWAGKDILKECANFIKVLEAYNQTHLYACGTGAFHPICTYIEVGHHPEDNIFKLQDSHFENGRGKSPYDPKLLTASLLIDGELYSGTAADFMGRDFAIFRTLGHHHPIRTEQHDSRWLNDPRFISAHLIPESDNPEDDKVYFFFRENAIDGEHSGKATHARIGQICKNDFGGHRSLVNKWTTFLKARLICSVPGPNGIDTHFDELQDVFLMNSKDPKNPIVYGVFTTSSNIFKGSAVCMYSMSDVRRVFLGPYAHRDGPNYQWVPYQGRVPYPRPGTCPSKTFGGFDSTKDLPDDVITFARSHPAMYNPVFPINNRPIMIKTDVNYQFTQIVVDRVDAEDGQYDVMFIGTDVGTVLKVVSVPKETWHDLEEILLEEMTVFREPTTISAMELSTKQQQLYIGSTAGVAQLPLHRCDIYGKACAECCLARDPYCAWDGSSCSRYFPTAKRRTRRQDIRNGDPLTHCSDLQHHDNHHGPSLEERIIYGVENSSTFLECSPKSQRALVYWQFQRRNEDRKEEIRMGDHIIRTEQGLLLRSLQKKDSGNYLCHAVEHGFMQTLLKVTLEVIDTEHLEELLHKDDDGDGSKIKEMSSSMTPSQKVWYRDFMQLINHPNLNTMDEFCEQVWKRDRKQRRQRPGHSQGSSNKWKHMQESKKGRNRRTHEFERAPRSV
Description: (Test 2) Inhibitory Activity for the Neuropilin-Binding Activity Caused by Sema3A
To each well of 96 well-plate (IWAKI) was seeded CHO cells stably-expressing mouse neuropilin, the cells were cultivated in F12 medium (10% fetal bovine serum, 100 units/mL penicillin, and 100 μg/mL streptomycin) under the condition of 5% CO2 and 37° C. for 18 hours. And then, the culture medium was removed, and mouse Sema3A which included each test compound and alkaline phosphatase (AP) in various concentrations was added thereto, and the culture was reacted at room temperature for more one hour. Then, the reaction solution was removed, the residual cells were washed with HBSS solution (0.25% BSA) and dissolved in a solution (10 mM Tris including 1% Triton X-100) at 65° C. for one hour, and the AP activity thereof was measured.

[2] = molecular target: T2, mouse semaphorin 3A (Sema3A) (Mus musculus, UniProt O08665); experiment: Inhibitory activity for the collapse activity caused by Sema3A (growth cone collapse assay, Test 1); assay type: cell-based; conditions: 1 μM test compound; chick embryo dorsal root ganglion; 3 units/mL mouse Sema3A; smaller value = more potent inhibition; read-out: residual ratio (%) of Sema3A activity (collapse assay)
T2 sequence (O08665 21-772): T1 sequence (O08665 21-772)
Description: Inhibitory Activity for the Collapse Activity Caused by Sema3A
96 well-plate (SUMITOMO BAKELITE CO., LTD.) which was beforehand coated with polylysine was further coated with laminin (10 μL laminin, at room temperature, for 1 hour). To each well was added 100 μL of a medium (F12 medium containing 10% fetal bovine serum, 20 ng/mL NGF, 100 unit/mL penicillin, and 100 μg/mL streptomycin). Dorsal root ganglion harvested from 7-8 day-old chick embryo was inoculated thereto, and the culture medium was cultivated under the condition of 5% CO2 and 37° C. for 16-20 hours. And then, each test compound in various concentrations was added to the medium, each test medium was cultivated for 30 minutes, 3 units/mL mouse semaphorin 3A (Sema3A) was added to each medium, and then each test medium was cultivated for more 30 minutes. Then, glutaraldehyde was added to the medium, in which the final concentration of glutaraldehyde was 1%. The medium was left to stand at room temperature for 15 minutes to make the tissue fragment fixed, and the ratio of the retracted growth cone was measured under a microscope.

[3] = test system: dry eye-model rat (exorbital lacrimal gland excised); experiment: Drug evaluation for corneal disorder in dry eye-model rat (Test 3); assay type: in vivo; conditions: eye drop 1 μL per shot, 6 times per day, 4 weeks
Description: (Test 3) Drug Evaluation for Corneal Disorder in Dry Eye-Model Rat
A model rat whose exorbital lacrimal gland is excised is generally used as a model for evaluating the drug efficacy for corneal disorder caused by dry eye. As for corneal disorder of the rat, hyaluronic acid (HA) and diquafosol sodium (DQS) which are existing drugs, and the present compound (Example 3) were administered to the rat, and each efficacy thereof was evaluated.
Male SD rat was anesthetized with inhalational isoflurane, and the exorbital lacrimal gland thereof was excised to prepare a dry eye-model rat (the conditions to prepare the dry eye-model rat can be changed as necessary, for example, by combining the excision of exorbital lacrimal gland with the medication of streptozotocin or the like). […]
The site of corneal disorder was stained with a fluorescein (FITC) solution, and the extent of the disorder was evaluated with the score gained from the following method. […]
The statistical significance for the drug effect was evaluated by nonparametric Tukey's multiple comparison test, in which the result of each test group was compared with that of the control (intact) group which was not operated by excising exorbital lacrimal gland.

[4] = test system: dry eye-model rat associated with the dysfunction of corneal nerves; experiment: Drug evaluation for the dysfunction of corneal nerves in dry eye rat model (Test 4); assay type: in vivo; conditions: lacrimal gland excision plus streptozotocin 55 mg/kg i.p.; eye drop 1 μL per shot, 6 times per day, 4 weeks; 0.3% HA, 3% DQS, 0.1% Example 3
Description: Drug Evaluation for the Dysfunction of Corneal Nerves in Dry Eye Rat Model
Male SD rat was anesthetized with inhalational isoflurane. The exorbital lacrimal gland thereof was excised, and at the same day, streptozotocin was administered intraperitoneally to the rat (55 mg/kg) to prepare a dry eye-model rat associated with the dysfunction of corneal nerves. Several weeks after the operation, 0.3% HA ophthalmic solution, 3% DQS ophthalmic solution, and 0.1% the ophthalmic solution of the present compound (Example 3) were administered to the rat in an awareness at 1 μL per shot, 6 times per day, for 4 weeks.
The cornea of the rat was softly held by hand. The drug effect for the dysfunction of corneal nerves was evaluated through blink reflex by contacting the cornea with the nylon filament of cochet-bonnet corneal esthesiometer. First, the tip of the nylon filament (length: 60 mm, diameter: 0.12 mm) was made to almost-vertically contact with the center of cornea, and the nylon filament was made to curve a little. […]
The statistical significance for the drug effect was evaluated by confirming that P value is less than 5% in Student's t test between the intact group and the PBS group, and then carrying out Student's t test between the intact group and the present compound group. […]

Row | SMILES | remaining activity at 100 µM [1] [%] | other results
1 | Cn1ccnc1COC(=O)c1c(O)c(O)cc2occ(-c3cn(C)c4cc(O)c(O)cc4c3=O)c(=O)c12 [Example 26, (1-Methyl-1H-imidazol-2-yl)methyl 3-(6,7-dihydroxy-1-methyl-4-oxo-1,4-dihydroquinolin-3-yl)-6,7-dihydroxy-4-oxo-4H-chromene-5-carboxylate hydrochloride] | – | remaining activity at 10 µM ([1]; 10 μM test compound (footnote *)): 97.8%
2 | Cn1cc(-c2coc3cc(O)c(O)c(C(=O)OCCN4CCC(O)C4)c3c2=O)c(=O)c2cc(O)c(O)cc21 (stereo not drawn) [Example 28, 2-(3-Hydroxypyrrolidin-1-yl)ethyl 3-(6,7-dihydroxy-1-methyl-4-oxo-1,4-dihydroquinolin-3-yl)-6,7-dihydroxy-4-oxo-4H-chromene-5-carboxylate] | 87.1 | –
3 | Cn1cc(-c2coc3cc(O)c(O)c(C(=O)OCc4cn(CC(=O)N[C@@H](CCC(=O)O)C(=O)O)nn4)c3c2=O)c(=O)c2cc(O)c(O)cc21 [Example 3, N-({4-[({[3-(6,7-Dihydroxy-1-methyl-4-oxo-1,4-dihydroquinolin-3-yl)-6,7-dihydroxy-4-oxo-4H-chromen-5-yl]carbonyl}oxy)methyl]-1H-1,2,3-triazol-1-yl}acetyl)-L-glutamic acid] | – | remaining activity at 1 µM [2]: 4%; therapeutic effect for corneal disorder caused by dry eye (fluorescein staining score 0-3) ([3]; 0.3% HA, 3% DQS, Example 3 ophthalmic solution, compared with intact group): potent therapeutic effect; improvement of corneal disorder compared with the vehicle-administration group (PBS) ([3]; ** denotes p<0.01): significant improvement; therapeutic effect for the dysfunction of corneal nerves (corneal perception, blink reflex, Cochet-Bonnet esthesiometer) [4]: marked therapeutic effect
4 | Cn1cc(-c2coc3cc(O)c(O)c(C(=O)OCCN(CC(=O)O)CC(=O)O)c3c2=O)c(=O)c2cc(O)c(O)cc21 [Example 22, 2,2′-{[2-({[3-(6,7-Dihydroxy-1-methyl-4-oxo-1,4-dihydroquinolin-3-yl)-6,7-dihydroxy-4-oxo-4H-chromen-5-yl]carbonyl}oxy)ethyl]imino}-di-acetic acid] | 62.1 | –
5 | CN1CCN(C)C(COC(=O)c2c(O)c(O)cc3occ(-c4cn(C)c5cc(O)c(O)cc5c4=O)c(=O)c23)C1 (stereo not drawn) [Example 25, (1,4-Dimethylpiperazin-2-yl)methyl 3-(6,7-dihydroxy-1-methyl-4-oxo-1,4-dihydroquinolin-3-yl)-6,7-dihydroxy-4-oxo-4H-chromene-5-carboxylate hydrochloride] | 90.5 | –
6 | Cn1cc(-c2coc3cc(O)c(O)c(C(=O)OCCOCCC(=O)N[C@@H](CCC(=O)O)C(=O)O)c3c2=O)c(=O)c2cc(O)c(O)cc21 [Example 21, N-{3-[2-({[3-(6,7-Dihydroxy-1-methyl-4-oxo-1,4-dihydroquinolin-3-yl)-6,7-dihydroxy-4-oxo-4H-chromen-5-yl]carbonyl}oxy)ethoxy]propanoyl}-L-glutamic acid] | 58.5 | –
7 | Cn1cc(-c2coc3cc(O)c(O)c(C(=O)OCCOCCOCCOCCOCCO)c3c2=O)c(=O)c2cc(O)c(O)cc21 [Example 29, 14-Hydroxy-3,6,9,12-tetraoxatetradec-1-yl 3-(6,7-dihydroxy-1-methyl-4-oxo-1,4-dihydroquinolin-3-yl)-6,7-dihydroxy-4-oxo-4H-chromene-5-carboxylate] | 49.3 | –
8 | Cn1cc(-c2coc3cc(O)c(O)c(C(=O)OCCOCCC(=O)O)c3c2=O)c(=O)c2cc(O)c(O)cc21 [Example 20, 3-[2-({[3-(6,7-Dihydroxy-1-methyl-4-oxo-1,4-dihydroquinolin-3-yl)-6,7-dihydroxy-4-oxo-4H-chromen-5-yl]carbonyl}oxy)ethoxy]propanoic acid] | 56.5 | –
9 | COC(=O)CCOCCOC(=O)c1c(O)c(O)cc2occ(-c3cn(C)c4cc(O)c(O)cc4c3=O)c(=O)c12 [Example 31, 2-(3-Methoxy-3-oxopropoxy)ethyl 3-(6,7-dihydroxy-1-methyl-4-oxo-1,4-dihydroquinolin-3-yl)-6,7-dihydroxy-4-oxo-4H-chromene-5-carboxylate] | 69.4 | –
